The values that follow come from ChEMBL document CHEMBL4831513, “Discovery of quinazoline derivatives as a novel class of potent and in vivo efficacious LSD1 inhibitors by drug repurposing” (Eur J Med Chem, 2021).

Active and inactive are the calls of the source. The calls are words filed in the database; no cut-off is given here.

The test system of one data set is BGC-823. The data set is described as follows: cells. As to conditions: Homo sapiens, BGC-823, 72 h.
The subject of data set [1] is MGC-803. The data set is described as follows: Induction of apoptosis in human MGC-803 cells assessed as late apoptotic cells at 20 uM measured after 24 hrs by Annexin V-FITC/PI staining based flow cytometry analysis (Rvb= 3.9%). In kind it is functional. On the technique in general: In flow cytometry, cells or beads pass a laser one at a time.
Data set [2] concerns the target T1, Lysine-specific histone demethylase 1A (Homo sapiens, UniProt O60341). The data set is described as follows: Inhibition of recombinant full length LSD1 (unknown origin) transfected in Escherichia coli BL21 (DE) at 5 uM using H3K4me2 as a substrate by flourescence based analysis relative to control.
Data set [3] is described as follows: Aqueous solubility of the compound in water. In kind it is physicochemical.
Data set [4] relates to MGC-803. The data set is described as follows: Induction of apoptosis in human MGC-803 cells assessed as late apoptotic cells at 5 uM measured after 24 hrs by Annexin V-FITC/PI staining based flow cytometry analysis (Rvb= 3.9%). The data set is classed as functional.
The subject of data set [5] is MGC-803. The data set is described as follows: Induction of apoptosis in human MGC-803 cells assessed as viable cells at 5 uM measured after 24 hrs by Annexin V-FITC/PI staining based flow cytometry analysis (Rvb= 89%). The settings on record: read-out: Activity. In kind it is functional.
In data set [6] the test system is MGC-803. The data set can be described thus: Induction of apoptosis in human MGC-803 cells assessed as live cells at 10 uM measured after 24 hrs by Annexin V-FITC/PI staining based flow cytometry analysis (Rvb= 89%). The data set is classed as functional.
The subject of data set [7] is MGC-803. The data set is described as follows: Inhibition of epithelial mesenchymal transition process in human MGC-803 cells assessed as decrease in N-cadherin expression at 0.1 to 0.5 uM measured after 24 hrs western blot analysis. The settings on record: dose 0.1-0.5 µM. In kind it is functional, cell-based. For orientation: In western blotting, separated proteins are transferred to a membrane and probed.

The next data set relates to MCF7. The data set is described as follows: cells. As to conditions: Homo sapiens, MCF7, 72 h.
The next data set deals with NCI-H460. The data set is described as follows: cells. As to conditions: Homo sapiens, NCI-H460, 72 h.
Data set [8] relates to MGC-803. The data set can be described thus: Antitumor activity against human MGC-803 cells xenografted in nude mouse assessed as inhibition of tumor growth at 40 to 80 mg/kg/day, iv administered for 21 days. In kind it is functional, organism-based. The settings on record: dose 40-80 mg/kg/day, time 21.0 day. (A xenograft is tissue or cells of one species grown in another, often human tumour cells in immunodeficient mice.)

Data set [9] deals with MGC-803. The data set is described as follows: Induction of apoptosis in human MGC-803 cells assessed as necrotic cells at 10 uM measured after 24 hrs by Annexin V-FITC/PI staining based flow cytometry analysis (Rvb= 1%). The data set is classed as functional.
Data set [10] relates to MGC-803. The data set can be described thus: Antitumor activity against human MGC-803 cells xenografted in nude mouse assessed as chromatin condensation in tumor tissue at 40 to 80 mg/kg/day, iv measured after 21 days by H and E staining based histopathological analysis. In kind it is functional, organism-based. As to conditions: dose 40-80 mg/kg/day, time 21.0 day.
Data set [11] has as its system MGC-803. The data set can be described thus: Antitumor activity against human MGC-803 cells xenografted in nude mouse assessed as pyknosis in tumor tissue at 40 to 80 mg/kg/day, iv measured after 21 days by H and E staining based histopathological analysis. As to conditions: dose 40-80 mg/kg/day, time 21.0 day. In kind it is functional, organism-based.
Data set [12] deals with MGC-803. The data set is described as follows: cells. As to conditions: Homo sapiens, MGC-803, 72 h.
Description: Antiproliferative activity against human MGC-803 cells assessed as cell growth inhibition measured after 72 hrs by MTT assay
Data set [13] in a line: Toxicity in nude mouse xenografted with human MGC-803 cells assessed as body weight loss at 40 to 80 mg/kg/day, iv administered for 21 days. In kind it is organism-based. The settings on record: in vivo, 504 h, dose 40-80 mg/kg/day, time 21 day.
For data set [14], the system named is MGC-803. The data set is described as follows: Induction of apoptosis in human MGC-803 cells assessed as necrotic cells at 20 uM measured after 24 hrs by Annexin V-FITC/PI staining based flow cytometry analysis (Rvb= 1%). In kind it is functional.
Data set [15] has as its target Tyrosine-protein kinase BTK (Homo sapiens) (UniProt Q06187). The data set can be described thus: Inhibition of N-terminal GST-fused human full length recombinant BTK expressed in baculovirus-infected Sf21 cells at 5 uM using 5-FAM-EAIYAAPFAKKK as a substrate incubated for 60 mins in the presence of ATP by caliper analysis relative to control.
Data set [16] relates to MGC-803. The data set can be described thus: Induction of apoptosis in human MGC-803 cells assessed as early apoptotic cells at 5 uM measured after 24 hrs by Annexin V-FITC/PI staining based flow cytometry analysis (Rvb= 6.1%). In kind it is functional.
Data set [17] concerns MGC-803. The data set is described as follows: Antitumor activity against human MGC-803 cells xenografted in nude mouse assessed as reduction in tumor weight at 40 mg/kg/day, iv administered for 21 days relative to control. In kind it is functional. The settings on record: MGC-803, iv, 504 h, time 21 day.
The target of data set [18] is T1, Lysine-specific histone demethylase 1A. The data set can be described thus: Inhibition of LSD1 in human MGC-803 cells assessed as increase in H3K4me2 expression measured after 24 hrs by western blot analysis. In kind it is cell-based. As to conditions: dose 5-20 µM.
Data set [19] deals with MGC-803. The data set can be described thus: Inhibition of clonogenicity in human MGC-803 cells assessed as reduction in colony formation measured after 10 days by crystal violet staining based analysis. The data set is classed as functional, cell-based. The settings on record: dose 1-20 µM, time 10.0 day.

Tyrosine-protein kinase BTK (Homo sapiens), sequence (Q06187 whole entry, the tested form may be a part): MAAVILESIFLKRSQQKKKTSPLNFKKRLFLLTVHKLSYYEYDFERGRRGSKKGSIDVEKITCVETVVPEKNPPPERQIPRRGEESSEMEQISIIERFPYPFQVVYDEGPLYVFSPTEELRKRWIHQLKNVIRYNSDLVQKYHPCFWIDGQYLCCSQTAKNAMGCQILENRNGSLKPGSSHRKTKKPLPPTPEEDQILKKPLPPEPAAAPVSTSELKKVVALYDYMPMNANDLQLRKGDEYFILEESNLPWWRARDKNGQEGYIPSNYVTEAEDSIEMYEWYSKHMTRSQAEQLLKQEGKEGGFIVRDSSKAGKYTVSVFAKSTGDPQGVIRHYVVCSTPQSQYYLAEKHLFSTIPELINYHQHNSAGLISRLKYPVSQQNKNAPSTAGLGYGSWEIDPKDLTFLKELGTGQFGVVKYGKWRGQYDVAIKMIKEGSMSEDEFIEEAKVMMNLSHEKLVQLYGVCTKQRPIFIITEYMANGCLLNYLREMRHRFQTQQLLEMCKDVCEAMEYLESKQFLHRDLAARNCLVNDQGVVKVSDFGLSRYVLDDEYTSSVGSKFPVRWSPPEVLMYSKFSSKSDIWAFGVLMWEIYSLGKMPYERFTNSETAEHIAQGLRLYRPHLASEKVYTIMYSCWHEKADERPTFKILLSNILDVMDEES
Description for BGC-823: Antiproliferative activity against human BGC-823 cells assessed as cell growth inhibition measured after 72 hrs by MTT assay
Description for MCF7: Antiproliferative activity against human MCF7 cells assessed as cell growth inhibition measured after 72 hrs by MTT assay
Description for NCI-H460: Antiproliferative activity against human NCI-H460 cells assessed as cell growth inhibition measured after 72 hrs by MTT assay

Take `COCCOc1cc2ncnc(Sc3nc[nH]n3)c2cc1OCCOC`: the half-inhibitory concentration (IC50) amounted to 15.3 µM with BGC-823, 38.5 µM in the data set with MCF7, 28.2 µM in the data set on NCI-H460 and 9.21 µM with MGC-803 [12]. Also, the Activity in the data set on MGC-803 [1] is on record as 45.8%; with MGC-803 [4], 20.9%; in the data set with MGC-803 [6] it was 55.1%; with MGC-803 [9], 2.2%; in [13], “Non-Toxic”; in the data set with MGC-803 [14], 2.3%. Also, the Activity with MGC-803 [16] was 10.3%. In addition, the inhibition was 97% in data set [2], < 2% in data set [15], “Dose-Dependent Effect” in data set [18] and “Dose-Dependent Effect” in the data set with MGC-803 [19]. The solubility in data set [3] was > 100 mg/mL. Also, in the data set with MGC-803 [5], the viability at 5 µM stood at 68.4%. The inhibition result in the data set on MGC-803 [7] is “Active”. Besides, the result with MGC-803 [8], in the data set on MGC-803 [10] and with MGC-803 [11] was Active. Moreover, the inhibition in vivo at 40 mg/kg/day in the data set with MGC-803 [17] stood at 81.6%.

The term IC50 denotes the concentration needed to halve the response being measured. Higher therefore signals lower potency. For orientation: inhibition means the change of the read-out against control, counted positive when it falls. The term solubility denotes the dissolved amount per volume that the medium holds. As a reminder, the inhibition in vivo is how much of the control response was suppressed.
